Results on one compound are retold here after ChEMBL document CHEMBL1156700, “Metabolic stereoselectivity of cytochrome P450 3A4 towards deoxypodophyllotoxin: In silico predictions and experimental validation” (Eur J Med Chem, 2008).

Broadly, the Km is the substrate concentration at which the rate is half of its maximum. In general, Vmax refers to the top rate of the reaction or transport when substrate is in excess.

Holding throughout (format): ADME
Series [1] deals with T1, Cytochrome P450 3A4 (Homo sapiens, UniProt P08684). The series is described as follows: Activity of human recombinant CYP3A4 co-expressed in Escherichia coli with human p450 NADPH reductase assessed as conversion of deoxypodophyllotoxin to epipodophyllotoxin. Conditions: recombinant enzyme.
T1 sequence (P08684 whole entry): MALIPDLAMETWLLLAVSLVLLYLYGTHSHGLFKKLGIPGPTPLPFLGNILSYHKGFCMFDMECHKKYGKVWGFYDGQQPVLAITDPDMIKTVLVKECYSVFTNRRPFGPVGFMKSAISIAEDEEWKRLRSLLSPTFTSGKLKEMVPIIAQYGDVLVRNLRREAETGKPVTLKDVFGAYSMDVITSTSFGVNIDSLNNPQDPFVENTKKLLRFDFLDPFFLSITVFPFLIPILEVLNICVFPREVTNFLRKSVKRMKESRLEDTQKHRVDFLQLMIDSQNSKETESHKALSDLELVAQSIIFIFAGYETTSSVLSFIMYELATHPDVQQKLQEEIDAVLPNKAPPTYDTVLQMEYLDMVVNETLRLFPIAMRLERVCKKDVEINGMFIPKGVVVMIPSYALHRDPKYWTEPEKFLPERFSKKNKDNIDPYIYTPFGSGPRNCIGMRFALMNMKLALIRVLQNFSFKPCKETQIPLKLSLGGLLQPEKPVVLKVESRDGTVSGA
For series [2], the target named is T1, Cytochrome P450 3A4. The series is described as follows: Activity of human recombinant CYP3A4 assessed as conversion of testosterone to 6-beta-hydroxytestesterone at 25 uM after 60 mins in presence of 25 uM Miconazole. Conditions: recombinant enzyme, 1 h.
Series [3] concerns the target T1, Cytochrome P450 3A4. The series is described as follows: Ratio of Vmax to Km for human recombinant CYP3A4. Conditions: recombinant enzyme.
Series [4] concerns the target T1, Cytochrome P450 3A4. The series is described as follows: Activity of human recombinant CYP3A4 assessed as conversion of testosterone to 6-beta-hydroxytestesterone at 25 uM after 60 mins in presence of 25 uM epipodophyllotoxin. Conditions: recombinant enzyme, 1 h.

With `C[C@]12CC[C@H]3[C@@H](CCC4=CC(=O)CC[C@@]43C)[C@@H]1CC[C@@H]2O` [TESTOSTERONE], at Cytochrome P450 3A4 [1], the Km came out at 20.5 µM and the Vmax is on record as 30.3 nmol/min. For the same compound, at Cytochrome P450 3A4 [2], the “inhibition (INH)” value is on record as 4.38%. Further, at Cytochrome P450 3A4 [3], the Vmax/Km came to 2.5e+06 M⁻¹ s⁻¹. Also, at Cytochrome P450 3A4 [4], the “inhibition (INH)” value is listed as 11.46%.
